12 compounds from patent publication US10865191B2, “Heterocyclic compounds useful as modulators of TNF alpha” (BRISTOL-MYERS SQUIBB COMPANY, priority 2015, dated 2020) can be followed below.

Each structure is given as a SMILES string.

The target of this assay is TNFα (Homo sapiens, UniProt P01375). Kind of assay: TNF induced HEK-Blue assay (NF-kB-driven secreted alkaline phosphatase reporter). In kind it is cell-based. To be noted: TNFα 0.5 ng/mL, HEK-Blue-CD40L cells, 18 h; read-out: TNF induced HEK-Blue assay IC50 value. Summed up: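 HEK-Blue-CD40L cells (NF-kB-driven SEAP reporter), 20,000/well, added after 30 min pre-incubation of compound (0.004–25 μM final) with TNFα 0.5 ng/mL final at 37 °C; 18 h incubation. SEAP read with QUANTI-Blue at 620 nm; IC50 from 4-parameter logistic fit, normalized to unstimulated and stimulated DMSO controls.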
Chain of TNFα (P01375 77-233 limits assumed): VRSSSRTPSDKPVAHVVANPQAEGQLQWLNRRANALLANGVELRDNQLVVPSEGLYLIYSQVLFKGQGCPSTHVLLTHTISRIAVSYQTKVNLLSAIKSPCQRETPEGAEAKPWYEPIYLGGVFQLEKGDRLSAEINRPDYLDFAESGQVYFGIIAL
As usually defined, the IC50 is the point on the concentration scale where inhibition reaches its midpoint. As for `C[C@@H](Nc1c(Cl)cnc2ccc(-c3cnc(C(C)(C)O)nc3)cc12)c1cc(N2CCNC2=O)ccc1F` [Example 370, (R)-1-(3-(1-((3-chloro-6-(2-(2-hydroxypropan-2-yl)pyrimidin-5-yl)quinolin-4-yl)amino)ethyl)-4-fluorophenyl)imidazolidin-2-one], the IC50 was less than 1000 nM.

As for `CC(Nc1c(Cl)cnc2ccc(-c3ccc(C(C)(C)O)cc3)cc12)c1ncco1` (racemic) [Example 179, 2-(4-(3-chloro-4-((1-(oxazol-2-yl)ethyl)amino)quinolin-6-yl)phenyl)propan-2-ol], the IC50 is less than 1000 nM.

As for `Cc1nc2ccc(-c3cnc(C(C)(C)O)nc3)cc2c(N[C@H](C)c2cc(C(C)(O)CO)ccc2F)c1Cl` (mixture of isomers) [Example 403, 2-(3-((R)-1-((3-chloro-6-(2-(2-hydroxypropan-2-yl)pyrimidin-5-yl)-2-methylquinolin-4-yl)amino)ethyl)-4-fluorophenyl)propane-1,2-diol], the IC50 was less than 1000 nM.

For `C[C@@H](Nc1c(Cl)cnc2ccc(-c3cnc(N4CCN(C5CCNC5=O)CC4)nc3)cc12)c1ccccc1F` (mixture of isomers) [Example 112, 3-(4-(5-(3-chloro-4-(((R)-1-(2-fluorophenyl)ethyl)amino)quinolin-6-yl)pyrimidin-2-yl)piperazin-1-yl)pyrrolidin-2-one], the IC50 was less than 1000 nM. Turning to `C[C@@H](Nc1c(Cl)cnc2ccc(-c3cnc(C(C)(C)O)nc3)cc12)c1cc(-c2nnn(C)n2)ccc1F` [Example 413, (R)-2-(5-(3-chloro-4-((1-(2-fluoro-5-(2-methyl-2H-tetrazol-5-yl)phenyl)ethyl)amino)quinolin-6-yl)pyrimidin-2-yl)propan-2-ol], the IC50 was less than 1000 nM. Under `CC(C)(O)c1ncc(-c2ccc3ncc(Cl)c(NC(c4ccccc4F)C(C)(C)O)c3c2)cn1` (racemic) [Example 49, 1-((3-chloro-6-(2-(2-hydroxypropan-2-yl)pyrimidin-5-yl)quinolin-4-yl)amino)-1-(2-fluorophenyl)-2-methylpropan-2-ol] stands less than 1000 nM. As for `C[C@@H](Nc1c(Cl)cnc2ccc(Br)cc12)c1cc(-c2cncnc2)ccc1F` [Example 532, (R)-6-bromo-3-chloro-N-(1-(2-fluoro-5-(pyrimidin-5-yl)phenyl)ethyl)quinolin-4-amine], the IC50 is less than 1000 nM.

In the case of `CC(Nc1c(Cl)cnc2ccc(-c3ccc(C(C)(C)O)cc3)cc12)c1ccnn1C` (racemic) [Example 195, 2-(4-(3-chloro-4-((1-(1-methyl-1H-pyrazol-5-yl)ethyl)amino)quinolin-6-yl)phenyl)propan-2-ol], the IC50 was 10000 to 25000 nM. `C[C@@H](Nc1c(Cl)cnc2cc(F)c(-c3cnc(C(C)(C)O)nc3)cc12)c1cc(C(N)=O)ccc1F` [Example 392, (R)-3-(1-((3-chloro-7-fluoro-6-(2-(2-hydroxypropan-2-yl)pyrimidin-5-yl)quinolin-4-yl)amino)ethyl)-4-fluorobenzamide]: the half-maximal inhibitory concentration (IC50) was less than 1000 nM. The figure for `CC(Nc1c(Cl)cnc2cc(F)c(-c3cnc(C(C)(O)CO)nc3)cc12)c1ccccc1F` (stereo not drawn) [Example 259, 2-(5-(3-chloro-7-fluoro-4-((1-(2-fluorophenyl)ethyl)amino)quinolin-6-yl)pyrimidin-2-yl)propane-1,2-diol] is 10000 to 25000 nM; for `C[C@@H](Nc1c(Cl)cnc2cc(F)c(-c3cnc(C(C)(C)O)nc3)nc12)c1cccc(C(N)=O)c1` [Example 581, (R)-3-(1-((3-chloro-7-fluoro-6-(2-(2-hydroxypropan-2-yl)pyrimidin-5-yl)-1,5-naphthyridin-4-yl)amino)ethyl)benzamide] it is 10000 to 25000 nM. Under `O=C(O)CN1CCN(c2ccc(-c3ccc4ncc(Cl)c(N[C@@H](c5ccccc5F)C(F)F)c4c3)cc2)CC1` [Example 16, (S)-2-(4-(4-(3-chloro-4-((2,2-difluoro-1-(2-fluorophenyl)ethyl)amino)quinolin-6-yl)phenyl)piperazin-1-yl)acetic acid] stands less than 1000 nM.
